Data taken from US20230174556A1, “COMPOUNDS AS PROTEIN KINASE INHIBITORS” (Fochon Biosciences, Ltd., priority 2020, published 2023).

These compounds were tested on OCI-LY10 (PI3Kδ dependent) cells (assay: OCI-LY10 cell proliferation assay (MTS)). Settings: Homo sapiens, OCI-Ly10, 72 h, inhibition of OCI-LY10 cells proliferation, 72 h incubation, MTS readout at 490 nm.
Assay type: cell-based
Experimental: MTS testing kit was purchased from Promega (Madison, WI, USA). The RPMI-1640, Fetal bovine serum and Penicillin-Streptomycin were purchased from BI (Biological Industries, Beit Haemek, Israel). Dimethyl sulfoxide (DMSO) was purchased from Sigma (St. Louis., MO, USA). OCI-LY10 cells were cultured in RPMI1640 supplemented with Penicillin-Streptomycin and 10% FBS.
To investigate whether a compound is able to inhibit the activity of PI3Kδ in cells, a mechanism-based assay using OCI-LY10 (PI3Kδ dependent) cells was developed. In this assay, inhibition of PI3Kδ was detected by the inhibition of OCI-LY10 cells proliferation. Cells were plated into 96-well plates at a density of 10000 cells/well. Plates were incubated at 37° C., with 5 % CO2 for 4 h. Compounds were serially diluted and added to the plates with the final compound concentrations as 10000, 3333.3, 1111.1, […], 123.5, 41.2, 13.7, 4.6 and 1.5 nM. Plates were incubated at 37° C., with 5 % CO2 for 72 h. 20 µl MTS was added into each well and the plates were incubated at 37° C., with 5 % CO2 for exactly 2 h. The absorbance was measured by a microplate reader at 490 nm. IC50 was calculated using GraphPad Prism 5.0 software.

| SMILES | IC50 |
| --- | --- |
| Cc1csc2cc([C@H](C)n3nc(-c4ccc(OC(C)C)c(F)c4)c4c(N)ncnc43)c(-c3ccccc3)c(=O)n12 [Example 2-S, (S)-7-(1-(4-amino-3-(3-fluoro-4-isopropoxyphenyl)-1H-pyrazolo[3,4-d]pyrimidin-1-yl)ethyl)-3-methyl-6-phenyl-5H-thiazolo[3,2-a]pyridin-5-one] | 1 nM |
| CC(C)Oc1ccc(-c2nn([C@@H](C)c3cc4scc(Cl)n4c(=O)c3-c3cccc(F)c3)c3ncnc(N)c23)cc1F [Example 3, (S)-7-(1-(4-amino-3-(3-fluoro-4-isopropoxyphenyl)-1H-pyrazolo[3,4-d]pyrimidin-1-yl)ethyl)-3-chloro-6-(3-fluorophenyl)-5H-thiazolo[3,2-a]pyridin-5-one] | 1 nM |
| CC(C)Oc1ccc(-c2nn([C@@H](C)c3cc4scc(Cl)n4c(=O)c3-c3ccccc3)c3ncnc(N)c23)cc1F [Example 4, (S)-7-(1-(4-amino-3-(3-fluoro-4-isopropoxyphenyl)-1H-pyrazolo[3,4-d]pyrimidin-1-yl)ethyl)-3-chloro-6-phenyl-5H-thiazolo[3,2-a]pyridin-5-one] | 1 nM |
| COc1ccc(-c2nn([C@@H](C)c3cc4scc(C)n4c(=O)c3-c3cccc(F)c3)c3ncnc(N)c23)cc1NS(C)(=O)=O [Example 5, (S)-N-(5-(4-amino-1-(1-(6-(3-fluorophenyl)-3-methyl-5-oxo-5H-thiazolo[3,2-a]pyridin-7-yl)ethyl)-1H-pyrazolo[3,4-d]pyrimidin-3-yl)-2-methoxyphenyl)methanesulfonamide] | 1 nM |
| COc1ccc(-c2nn([C@@H](C)c3cc4scc(C)n4c(=O)c3-c3ccccc3)c3ncnc(N)c23)cc1NS(C)(=O)=O [Example 6, (S)-N-(5-(4-amino-1-(1-(3-methyl-5-oxo-6-phenyl-5H-thiazolo[3,2-a]pyridin-7-yl)ethyl)-1H-pyrazolo[3,4-d]pyrimidin-3-yl)-2-methoxyphenyl)meth anesulfonamide] | 1 nM |
| Cc1csc2nc([C@H](C)n3nc(-c4ccc(OC(C)C)c(F)c4)c4c(N)ncnc43)c(-c3cccc(F)c3)c(=O)n12 [Example 7, (S)-7-(1-(4-amino-3-(3-fluoro-4-isopropoxyphenyl)-1H-pyrazolo[3,4-d]pyrimidin-1-yl)ethyl)-6-(3-fluorophenyl)-3-methyl-5H-thiazolo[3,2-a]pyrimidin-5-one] | 4 nM |
| Cc1csc2nc([C@H](C)n3nc(-c4ccc(OC(C)C)c(F)c4)c4c(N)ncnc43)c(-c3ccccc3)c(=O)n12 [Example 8, (S)-7-(1-(4-amino-3-(3-fluoro-4-isopropoxyphenyl)-1H-pyrazolo[3,4-d]pyrimidin-1-yl)ethyl)-3-methyl-6-phenyl-5H -thiazolo[3,2-a]pyrimidin-5-one] | 6 nM |
| CC(C)Oc1ccc(-c2nn([C@H](c3cc4scc(Cl)n4c(=O)c3-c3cccc(F)c3)C3CC3)c3ncnc(N)c23)cc1F [Example 11, (S)-7-((4-amino-3-(3-fluoro-4-isopropoxyphenyl)-1H-pyrazolo[3,4-d]pyrimidin-1-yl)(cyclopropyl)methyl)-3-chlor o-6-(3-fluorophenyl)-5H-thiazolo[3,2-a]pyridin-5-one] | 1 nM |
| C[C@@H](c1cc2scc(Cl)n2c(=O)c1-c1cccc(F)c1)n1nc(-c2ccc(OC3CC3)c(F)c2)c2c(N)ncnc21 [Example 12, (S)-7-(1-(4-amino-3-(4-cyclopropoxy-3-fluorophenyl)-1H-pyrazolo[3,4-d]pyrimidin-1-yl)ethyl)-3-chloro-6-(3-fluor ophenyl)-5H-thiazolo[3,2-a]pyridin-5-one] | 18 nM |
| C[C@@H](c1cc2scc(Cl)n2c(=O)c1-c1ccccc1)n1nc(-c2ccc(OC3CC3)c(F)c2)c2c(N)ncnc21 [Example 13, (S)-7-(1-(4-amino-3-(4-cyclopropoxy-3-fluorophenyl)-1H-pyrazolo[3,4-d]pyrimidin-1-yl)ethyl)-3-chloro-6-phenyl-5H-thiazolo[3,2-a]pyridin-5-one] | 15 nM |
| Cc1csc2cc([C@H](C)n3nc(-c4ccc(OC(F)F)c(F)c4)c4c(N)ncnc43)c(-c3cccc(F)c3)c(=O)n12 [Example 14, (S)-7-(1-(4-amino-3-(4-(difluoromethoxy)-3-fluorophenyl)-1H-pyrazolo[3,4-d]pyrimidin-1-yl)ethyl)-6-(3-fluorophenyl)-3-methyl-5H-thiazolo[3,2-a]pyrid in-5-one] | 1 nM |
| Cc1csc2cc([C@H](C)n3nc(-c4ccc(OC(F)F)c(F)c4)c4c(N)ncnc43)c(-c3ccccc3)c(=O)n12 [Example 15, (S)-7-(1-(4-amino-3-(4-(difluoromethoxy)-3-fluorophenyl)-1H-pyrazolo[3,4-d]pyrimidin-1-yl)ethyl)-3-methyl-6-ph enyl-5H-thiazolo[3,2-a]pyridin-5-one] | 1 nM |
| Cc1csc2cc([C@H](C)n3nc(-c4ccc(OC5CC5)c(F)c4)c4c(N)ncnc43)c(-c3cccc(F)c3)c(=O)n12 [Example 16, (S)-7-(1-(4-amino-3-(4-cyclopropoxy-3-fluorophenyl)-1H-pyrazolo[3,4-d]pyrimidin-1-yl)ethyl)-6-(3-fluorophenyl) -3-methyl-5H-thiazolo[3,2-a]pyridin-5-one] | 26 nM |
| Cc1csc2cc([C@H](C)n3nc(-c4ccc(OC(C)C)nc4)c4c(N)ncnc43)c(-c3ccccc3)c(=O)n12 [Example 18, (S)-7-(1-(4-amino-3-(6-isopropoxypyridin-3-yl)-1H-pyrazolo[3,4-d]pyrimidin-1-yl)ethyl)-3-methyl-6-phenyl-5H-thi azolo[3,2-a]pyridin-5-one] | 1 nM |
| Cc1csc2cc([C@H](C)n3nc(-c4ccc(OC(C)C)nc4)c4c(N)ncnc43)c(-c3cccc(F)c3)c(=O)n12 [Example 19, (S)-7-(1-(4-amino-3-(6-isopropoxypyridin-3-yl)-1H-pyrazolo[3,4-d]pyrimidin-1-yl)ethyl)-6-(3-fluorophenyl)-3-methyl-5H-thiazolo[3,2-a]pyridin-5-one] | 1 nM |
| Cc1csc2cc([C@H](C)n3nc(-c4cnc(OC(C)C)c(F)c4)c4c(N)ncnc43)c(-c3ccccc3)c(=O)n12 [Example 20, (S)-7-(1-(4-amino-3-(5-fluoro-6-isopropoxypyridin-3-yl)-1H-pyrazolo[3,4-d]pyrimidin-1-yl)ethyl)-3-methyl-6-phenyl-5H-thiazolo[3,2-a]pyridin-5-one] | 1 nM |
| Cc1csc2cc([C@H](C)n3nc(-c4cnc(OC(C)C)c(F)c4)c4c(N)ncnc43)c(-c3cccc(F)c3)c(=O)n12 [Example 21, (S)-7-(1-(4-amino-3-(5-fluoro-6-isopropoxypyridin-3-yl)-1H-pyrazolo[3,4-d]pyrimidin-1-yl)ethyl)-6-(3-fluorophenyl)-3-methyl-5H-thiazolo[3,2-a]pyridi n-5-one] | 1 nM |
| COc1ccc(-c2nn([C@@H](C)c3cc4scc(Cl)n4c(=O)c3-c3ccccc3)c3ncnc(N)c23)cc1NS(C)(=O)=O [Example 44, (S)-N-(5-(4-amino-1-(1-(3-chloro-5-oxo-6-phenyl-5H-thiazolo[3,2-a]pyridin-7-yl)ethyl)-1H-pyrazolo[3,4-d]pyrimidin-3-yl)-2-methoxyphenyl)methanesul fonamide] | 40 nM |
| COc1ccc(-c2nn([C@@H](C)c3cc4scc(Cl)n4c(=O)c3-c3cccc(F)c3)c3ncnc(N)c23)cc1NS(C)(=O)=O [Example 45, (S)-N-(5-(4-amino-1-(1-(3-chloro-6-(3-fluorophenyl)-5-oxo-5H-thiazolo[3,2-a]pyridin-7-yl)ethyl)-1H-pyrazolo[3,4-d]pyrimidin-3-yl)-2-methoxyphenyl)m ethanesulfonamide] | 41 nM |

Same assay, conditions: inhibition of OCI-LY10 cells proliferation, 72 h incubation, MTS readout at 490 nm

| SMILES | IC50 |
| --- | --- |
| Cc1csc2cc(C(C)n3nc(-c4ccc(OC(C)C)c(F)c4)c4c(N)ncnc43)c(-c3ccccc3)c(=O)n12 (centres unmarked) [Example 2, 7-(1-(4-amino-3-(3-fluoro-4-isopropoxyphenyl)-1H-pyrazolo[3,4-d]pyrimidin-1-yl)ethyl)-3-methyl-6-phenyl-5H-thiazolo[3,2-a]pyridin-5-one] | 2 nM |
| Cc1csc2cc([C@H](C)n3nc(-c4ccc(OC5CC5)c(F)c4)c4c(N)ncnc43)c(-c3ccccc3)c(=O)n12 [Example 17, (S)-7-(1-(4-amino-3-(4-cyclopropoxy-3-fluoropheny1)-1H-pyrazolo[3,4-d]pyrimidin-1-yl)ethyl)-3-methyl-6-phenyl-5H-thiazolo[3,2-a]pyridin-5-one] | 65 nM |
| C[C@@H](c1cc2scc(Cl)n2c(=O)c1-c1cccc(F)c1)n1nc(-c2ccc(OC(F)F)c(F)c2)c2c(N)ncnc21 [Example 66, (S)-7-(1-(4-amino-3-(4-(difluoromethoxy)-3-fluorophenyl)-1H-pyrazolo[3,4-d]pyrimidin-1-yl)ethyl)-3-chloro-6-(3-fluorophenyl)-5H-thiazolo[3,2-α]pyrid in-5-one] | 5 nM |
| C[C@@H](c1cc2scc(Cl)n2c(=O)c1-c1ccccc1)n1nc(-c2ccc(OC(F)F)c(F)c2)c2c(N)ncnc21 [Example 67, (S)-7-(1-(4-amino-3-(4-(difluoromethoxy)-3-fluorophenyl)-1H-pyrazolo[3,4-d]pyrimidin-1-yl)ethyl)-3-chloro-6-ph enyl-5H-thiazolo[3,2-α]pyridin-5-one] | 1 nM |
